Source: article PMC12203428, “Discovery of Clonixeril as a Sub-Femtomolar Modulator of the Human STING Receptor” (ACS Central Science, 2025)

Assays:
His-hSTING CTD = biological target: T1, His-hSTING CTD (Homo sapiens, UniProt Q86WV6, H232R); assay: Surface plasmon resonance; type: binding; conditions: without 2′,3′-cGAMP competition; read-out: KD (SPR)
T1 construct: purchased Invivogen (USA) or Cayman Chemicals (USA)
Description: SPR was employed for binding measurements using the His-tagged hSTING^WT CDN domain. A GE Healthcare Biacore T200 was equipped with a Ni-NTA chip. […] The sensorgrams were analyzed using Biacore T200 Software 3.0 and steady state was measured at 4 s before injection stop, exported into Graphpad, and fit versus concentration using a one site specific binding model to calculate the apparent equilibrium dissociation constant (K D). Where appropriate, kinetics were measured using a 1:1 Langmuir binding model with R max set to local to obtain the association rate (K on), dissociation (K off)

[1] = Hydrolysis of clonixeril to clonixin by HPLC; type: physicochemical
Description: (§1) To determine clonixeril’s hydrolytic stability and evaluate its potential as an oral drug, an aqueous solution was concentrated for analysis at 20 µM. The sample was analyzed by HPLC using an […]
(§2) The UV spectra of these peaks were compared by diode array and found to be identical with maximum absorbance at 280nm and 343nm. […]
the minor first peak matched the molecular weight of clonixin (M+H)+ and the second major peak matched the molecular weight of clonixeril (M+H)+. Data was generated by measuring the ratio between the two peaks. Hydrolysis of clonixeril to clonixin was measured by HPLC over seven days using a 20 µM aqueous solution.
96.8% clonixeril (Figure S4B). Most of the hydrolysis occurred within the first two days at an average rate of […], and then slowed down to an average rate of 0.07% per hour by day seven (Figure S4B). The rate decrease correlated with an observable decrease in solution pH as a product of hydrolysis. Further samples solubilized in pH 2.00 phosphoric acid and pH 1.99 hydrochloric acid confirmed that the rate decreases to an average of 0.014% per hour over […]
a seven-day period. […]

[2] = system: THP1 STING knockout cells; assay: STING knockout THP-1 luciferase assay; type: cell-based, human; conditions: WT-THP1 vs THP1 STING knockout cells
Excerpt: docking algorithm to properly calculate estimated free energies of binding for the LD-protein […]
Differential Scanning Fluorimetry – Thermal Shift Experiment […]
to the endogenous ligand, 2’,3’-cGAMP, 2) unbound and 3) bound to ligands chosen by the virtual screening process for their potential to stabilize the active form of the STING molecule by binding to it. A TSA measures a protein's melting temperature (Tm), at which the protein is 50% denatured. The assay quantifies protein denaturation by measuring the increase in fluorescence of a dye that binds to hydrophobic residues exposed by unfolding of the protein.
as §1, §2
the minor first peak matched the molecular weight of clonixin (M+H)+ and the second major peak matched the molecular weight of clonixeril (M+H)+. […] Hydrolysis of clonixeril to clonixin was measured by HPLC over seven days using a 20 µM aqueous solution. […]
Figure S4. […] (D) Quantification of luciferase assay performed using WT-THP1 and THP1 STING knockout cells in the presence and absence of clonixeril and/or 2’,3’-cGAMP. […]

T1 sequence (Q86WV6 153-340 H232R): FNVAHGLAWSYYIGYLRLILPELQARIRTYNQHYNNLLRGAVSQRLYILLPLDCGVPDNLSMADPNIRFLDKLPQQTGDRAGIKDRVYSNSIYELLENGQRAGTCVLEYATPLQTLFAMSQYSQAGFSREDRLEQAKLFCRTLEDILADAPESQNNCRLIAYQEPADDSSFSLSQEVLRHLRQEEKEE

Kd (His-hSTING CTD): 430 ± 140 nM
Initial hydrolysis, clonixeril ([1]; 20 µM aqueous solution): 96.8%
Initial hydrolysis, clonixin ([1]; 20 µM aqueous solution): 3.2%
Initial hydrolysis, clonixeril ([1]; 5% sodium bicarbonate): 88.2%
Initial hydrolysis, clonixin ([1]; 5% sodium bicarbonate): 11.8%
Average rate of hydrolysis ([1]; aqueous solution, by day seven): 0.07 % per hour
Average rate of hydrolysis ([1]; aqueous solution, first two days): 0.13 % per hour
Average rate of hydrolysis ([1]; pH 2.00 phosphoric acid and pH 1.99 hydrochloric acid, seven-day period): 0.014 % per hour
Hydrolysis ([1]; pH of 1.0): relatively slow hydrolysis
Hydrolysis ([1]; pH=2.0): surprisingly slow
SMILES: Cc1c(Cl)cccc1Nc1ncccc1C(=O)OCC(O)CO (centres unmarked) [CXL, clonixeril]
Pathway dependence of effect on pIRF3 production [2]: affecting pIRF3 production only through the STING pathway
